# Test results from US20250275977A1, “DOSAGE REGIMENS FOR TREATMENT WITH DEUTERATED JAK INHIBITORS” (SUN PHARMACEUTICAL INDUSTRIES, INC., priority 2022, published 2025).
# Experiments:
# Format in all cases: in vivo, human
# [1] = system: subjects with alopecia areata; test: Open-label extension study (OLE), SALT score after dose reduction
# Experimental: In an ongoing open-label extension study, subjects who were previously enrolled in a qualifying clinical study (including the study described in Example 1) and received either a total daily dose of 16 mg of Compound (I) (CTP-543, phosphate salt), a total daily dose of 24 mg of CTP-543, or placebo, and completed through the 24-week treatment period, were eligible to enroll in an open-label extension study (OLE) and continue to receive treatment with CTP-543 phosphate. A total of 152 subjects were enrolled in the OLE. In the OLE, subjects received daily treatment with CTP-543 at a dose of 8 mg BID or 12 mg BID (see FIG. 8). Dose adjustments were allowed at the investigator's discretion. One subject enrolled in the OLE, who received a daily dose of 24 mg QD of CTP-543 for approximately 9 months (i.e., the 24-week study period and the initial 3 months of the OLE), experienced hair growth at that dose (SALT score of zero, i.e., full regrowth of hair prior to dose reduction). The subject then had their dose reduced to a daily dose of 8 mg BID of CTP-543 phosphate. After approximately 7 months in the OLE receiving the lower daily dose of 8 mg BID of CTP-543, the subject continued to substantially maintain hair regrowth, with a SALT score of 7.92.
# [2] = system: adult patients with moderate-to-severe alopecia areata; test: Phase 2a trial, safety: treatment emergent adverse events by patient
# Experimental: (§1) A Phase 2a trial was conducted to evaluate the safety and efficacy of Compound (I) (CTP-543) in subjects with alopecia, with the primary efficacy analysis at week 24. The Phase 2a trial was a double-blind, randomized, placebo-controlled trial to evaluate the safety and efficacy of Compound (I) in adult patients with moderate-to-severe alopecia areata. Patients were sequentially randomized to receive one of three doses of Compound I as the phosphate salt (e.g., 10.5 mg of Compound (I) phosphate salt is equivalent 8 mg of Compound (I) free base). The doses of Compound (I) were 4, 8 (i.e., about 10.5 mg of Compound (I) phosphate salt), and 12 mg twice daily, and there was also a patient group receiving placebo. The primary outcome measure utilized the severity of alopecia tool (SALT) after 24 weeks of dosing.
# [3] = system: adult patients with moderate-to-severe alopecia areata; test: Phase 2a double-blind, randomized, placebo-controlled trial, efficacy by severity of alopecia tool (SALT); settings: for patients who achieved a ≥50% reduction in their overall SALT score: week 24, relative to baseline; for difference from placebo on all SALT measures / patients who achieved a ≥75% reduction in their overall SALT score / patients who achieved a ≥90% reduction in their overall SALT score: week 24; for significant changes in SALT score compared to placebo observed starting at: p<0.05
# Text: The efficacy of treatment of hair loss disorders such as alopecia areata can be measured in a variety of ways, some of which are known in the art. For example, the “severity of alopecia tool”, otherwise known as SALT, is a validated assessment scale—developed by the National Alopecia Areata Foundation working committee—to evaluate the degree of hair loss. See, e.g., Olsen E A, Hordinsky M K, Price V H, et al. Alopecia areata investigational assessment guidelines—Part II. J Am Acad Dermatol 2004: 51: 440-447 (incorporated herein by reference). The SALT score is calculated for a patient by measuring the percentage of hair loss in each of the 4 areas of the scalp and adding the total to achieve a composite score. Hair regrowth is reflected by a decrease in the SALT score. For example, no hair on the scalp would have a SALT score of 100 while complete hair regrowth would be a SALT score of 0. In certain embodiments, methods of treatment as described herein can provide a SALT score improvement of at least 10 points after treatment (for example, from a SALT score of 100 prior to treatment to a SALT score of 90 after treatment). In further embodiments, methods of treatment as described herein can provide a SALT score improvement of at least 20 points, 30 points, 40 points, 50 points, 60 points, 70 points, 80 points, 90 points, or 100 points. In certain embodiments, methods of treatment as described herein can provide after treatment at least a 20% improvement from baseline in the patient's SALT score, or at least a 30% improvement from baseline in the patient's SALT score, or at least a 40% improvement from baseline in the patient's SALT score, or at least a 50% improvement from baseline in the patient's SALT score, or at least a 60% improvement from baseline in the patient's SALT score, or at least a 70% improvement from baseline in the patient's SALT score, or at least a 75% improvement from baseline in the patient's SALT score or at least a 80% improvement from baseline in the patient's SALT score, or at least a 90% improvement from baseline in the patient's SALT score.
# as §1
# Interim top line analysis for the 4 mg, 8 mg, and 12 mg cohorts is discussed below. The primary endpoint for the study was a 50% relative reduction in SALT between Week 24 and baseline.
structure (smiles),measurement,setting,value
"[2H]C1([2H])C([C@@H](CC#N)n2cc(-c3ncnc4[nH]ccc34)cn2)C([2H])([2H])C([2H])([2H])C1([2H])[2H] [CTP-543, (R)-3-(4-(7H-pyrrolo[2,3-d]pyrimidin-4-yl)-1H-pyrazol-1-yl)-3-(cyclopentyl-2,2,3,3,4,4,5,5-d8)propanenitrile]",SALT score,"[1]; one subject, 24 mg QD for approximately 9 months, prior to dose reduction",zero
same,SALT score,"[1]; same subject, after approximately 7 months at the reduced dose of 8 mg BID",7.92
same,"Acne, patients with event",[2]; 4 mg twice daily,4
same,"Acne, percent of patients",[2]; 4 mg twice daily,(13.8%)
same,"Blood creatine phosphokinase increased, patients with event",[2]; 4 mg twice daily,3
same,"Blood creatine phosphokinase increased, percent of patients",[2]; 4 mg twice daily,(10.3%)
same,"Cough, patients with event",[2]; 4 mg twice daily,4
same,"Cough, percent of patients",[2]; 4 mg twice daily,(13.8%)
same,"Diarrhoea, patients with event",[2]; 4 mg twice daily,3
same,"Diarrhoea, percent of patients",[2]; 4 mg twice daily,(10.3%)
same,"Folliculitis, patients with event",[2]; 4 mg twice daily,3
same,"Folliculitis, percent of patients",[2]; 4 mg twice daily,(10.3%)
same,"Headache, patients with event",[2]; 4 mg twice daily,5
same,"Headache, percent of patients",[2]; 4 mg twice daily,(17.2%)
same,"LDL increase, patients with event",[2]; 4 mg twice daily,0
same,"Nasopharyngitis, patients with event",[2]; 4 mg twice daily,3
same,"Nasopharyngitis, percent of patients",[2]; 4 mg twice daily,(10.3%)
same,"Nausea, patients with event",[2]; 4 mg twice daily,4
same,"Nausea, percent of patients",[2]; 4 mg twice daily,(13.8%)
same,"Oroharyngeal pain, patients with event",[2]; 4 mg twice daily,3
same,"Oroharyngeal pain, percent of patients",[2]; 4 mg twice daily,(10.3%)
same,"Upper respiratory tract infection, patients with event",[2]; 4 mg twice daily,2
same,"Upper respiratory tract infection, percent of patients",[2]; 4 mg twice daily,(6.9%)
same,"Acne, patients with event",[2]; 8 mg twice daily,4
same,"Acne, percent of patients",[2]; 8 mg twice daily,(10.5%)
same,"Blood creatine phosphokinase increased, patients with event",[2]; 8 mg twice daily,2
same,"Blood creatine phosphokinase increased, percent of patients",[2]; 8 mg twice daily,(5.3%)
same,"Cough, patients with event",[2]; 8 mg twice daily,1
same,"Cough, percent of patients",[2]; 8 mg twice daily,(2.6%)
same,"Diarrhoea, patients with event",[2]; 8 mg twice daily,1
same,"Diarrhoea, percent of patients",[2]; 8 mg twice daily,(2.6%)
same,"Folliculitis, patients with event",[2]; 8 mg twice daily,2
same,"Folliculitis, percent of patients",[2]; 8 mg twice daily,(5.3%)
same,"Headache, patients with event",[2]; 8 mg twice daily,10
same,"Headache, percent of patients",[2]; 8 mg twice daily,(26.3%)
same,"LDL increase, patients with event",[2]; 8 mg twice daily,4
same,"LDL increase, percent of patients",[2]; 8 mg twice daily,(10.5%)
same,"Nasopharyngitis, patients with event",[2]; 8 mg twice daily,3
same,"Nasopharyngitis, percent of patients",[2]; 8 mg twice daily,(7.9%)
same,"Nausea, patients with event",[2]; 8 mg twice daily,4
same,"Nausea, percent of patients",[2]; 8 mg twice daily,(10.5%)
same,"Oroharyngeal pain, patients with event",[2]; 8 mg twice daily,2
same,"Oroharyngeal pain, percent of patients",[2]; 8 mg twice daily,(5.3%)
same,"Upper respiratory tract infection, patients with event",[2]; 8 mg twice daily,2
same,"Upper respiratory tract infection, percent of patients",[2]; 8 mg twice daily,(5.3%)
same,"Acne, patients with event",[2]; 12 mg twice daily,6
same,"Acne, percent of patients",[2]; 12 mg twice daily,(16.7%)
same,"Blood creatine phosphokinase increased, patients with event",[2]; 12 mg twice daily,1
same,"Blood creatine phosphokinase increased, percent of patients",[2]; 12 mg twice daily,(2.8%)
same,"Cough, patients with event",[2]; 12 mg twice daily,2
same,"Cough, percent of patients",[2]; 12 mg twice daily,(5.6%)
same,"Diarrhoea, patients with event",[2]; 12 mg twice daily,0
same,"Folliculitis, patients with event",[2]; 12 mg twice daily,1
same,"Folliculitis, percent of patients",[2]; 12 mg twice daily,(2.8%)
same,"Headache, patients with event",[2]; 12 mg twice daily,7
same,"Headache, percent of patients",[2]; 12 mg twice daily,(19.4%)
same,"LDL increase, patients with event",[2]; 12 mg twice daily,0
same,"Nasopharyngitis, patients with event",[2]; 12 mg twice daily,9
same,"Nasopharyngitis, percent of patients",[2]; 12 mg twice daily,(25.0%)
same,"Nausea, patients with event",[2]; 12 mg twice daily,1
same,"Nausea, percent of patients",[2]; 12 mg twice daily,(2.8%)
same,"Oroharyngeal pain, patients with event",[2]; 12 mg twice daily,1
same,"Oroharyngeal pain, percent of patients",[2]; 12 mg twice daily,(2.8%)
same,"Upper respiratory tract infection, patients with event",[2]; 12 mg twice daily,7
same,"Upper respiratory tract infection, percent of patients",[2]; 12 mg twice daily,(19.4%)
same,serious adverse events,"[2]; 4, 8 and 12 mg BID, 24 weeks",no serious adverse events
same,tolerability of treatment,"[2]; 4, 8 and 12 mg BID, 24 weeks",generally well-tolerated
same,Grade 3/4 hematology events,"[2]; preliminary analysis, total, distributed equally across the placebo, 4 mg and 8 mg groups",3
same,separation from placebo on all measures,[3]; 4 mg BID,failed to separate from placebo on all measures
same,patients who achieved a ≥50% reduction in their overall SALT score,[3]; 4 mg BID,21%
same,difference from placebo on all SALT measures,[3]; 8 mg BID,significantly different from placebo
same,patients who achieved a ≥75% reduction in their overall SALT score,[3]; 8 mg BID,29%
same,patients who achieved a ≥90% reduction in their overall SALT score,[3]; 8 mg BID,16%
same,patients who achieved a ≥50% reduction in their overall SALT score,[3]; 8 mg BID,47%
same,significant changes in SALT score compared to placebo observed starting at,[3]; 8 mg cohort,12 weeks
same,12 mg BID dose compared to the 8 mg BID dose,[3]; 12 mg BID vs 8 mg BID,numerically superior and generally produced faster onset and greater effect
same,difference from placebo on all SALT measures,[3]; 12 mg BID,significantly different from placebo
same,patients who achieved a ≥75% reduction in their overall SALT score,[3]; 12 mg BID,42%
same,patients who achieved a ≥90% reduction in their overall SALT score,[3]; 12 mg BID,36%
same,patients who achieved a ≥50% reduction in their overall SALT score,[3]; 12 mg BID,58%
same,significant changes in SALT score compared to placebo observed starting at,[3]; 12 mg cohort,12 weeks
